PubChem BioAssay (NCI)
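Compound exposure: 48 hours, 5 concentrations, 96-well plates. Here, GI50 denotes the concentration required for 50% inhibition of growth. TGI denotes the concentration required for complete inhibition of growth.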

How the values were obtained:
Test in all cases: growth of human tumour cells (NCI), 48 h
OVCAR-3 ovarian = test system: OVCAR-3 ovarian
SW-620 colon = test system: SW-620 colon
TK-10 renal = test system: TK-10 renal
NCI-H460 lung = test system: NCI-H460 lung
SK-MEL-28 melanoma = test system: SK-MEL-28 melanoma
KM12 colon = test system: KM12 colon
HOP-92 NSCLC = test system: HOP-92 NSCLC
SK-MEL-5 melanoma = test system: SK-MEL-5 melanoma
RPMI-8226 leukemia = test system: RPMI-8226 leukemia
SNB-75 CNS = test system: SNB-75 CNS

Compound	TGI (OVCAR-3 ovarian)	TGI (SW-620 colon)	TGI (TK-10 renal)	TGI (NCI-H460 lung)	TGI (SK-MEL-28 melanoma)	TGI (KM12 colon)	TGI (HOP-92 NSCLC)	TGI (SK-MEL-5 melanoma)	TGI (RPMI-8226 leukemia)	TGI (SNB-75 CNS)	GI50 (OVCAR-3 ovarian)	GI50 (SW-620 colon)	GI50 (TK-10 renal)	GI50 (NCI-H460 lung)	GI50 (SK-MEL-28 melanoma)	GI50 (KM12 colon)	GI50 (HOP-92 NSCLC)	GI50 (SK-MEL-5 melanoma)	GI50 (RPMI-8226 leukemia)	GI50 (SNB-75 CNS)
C/C(CC(=O)Nc1cc(Cl)c(Cl)cc1Cl)=N\NS(=O)(=O)c1ccc(C)cc1	74.7 µM	> 100 µM	> 100 µM	> 100 µM	> 100 µM	> 100 µM	59 µM	> 100 µM	87.2 µM	> 100 µM										
COc1ccc2c(c1)/C(=N/OC(C)=O)c1c-2c(Nc2ccc(/C(C)=N/OC(C)=O)cc2)nc2ccccc12	87.4 µM	> 100 µM	> 100 µM	> 100 µM	> 100 µM	> 100 µM	> 100 µM	> 100 µM	79.7 µM	75.9 µM	30.1 µM	36.5 µM	> 100 µM	35.7 µM	44.5 µM	43.5 µM	70.1 µM	79.4 µM	29.2 µM	25 µM
CN1CCN(Cc2ccc(NC(=O)c3cncc(C#Cc4cncc5[nH]ncc45)c3)cc2C(F)(F)F)CC1	6.39 µM	3.64 µM	5.43 µM	5.6 µM	1.96 µM	2.65 µM	1.26 µM	4.58 µM	2.48 µM	2.51 µM	1.46 µM	0.611 µM	1.38 µM	1.19 µM	0.208 µM	0.0209 µM	0.156 µM	1.17 µM	0.761 µM	0.793 µM
O=[N+]([O-])C1(CO)COC2(OC1)c1ccccc1-c1ccccc12	> 100 µM	44.5 µM	> 100 µM	> 100 µM	> 100 µM	> 100 µM	> 95.7 µM	> 100 µM	70.1 µM	> 100 µM										
O=C(Nc1ccc(I)cc1F)c1cc(F)ccc1O	> 56.4 µM	> 34.7 µM	24.2 µM	> 27.7 µM	1.91 µM	6.23 µM	0.504 µM	0.556 µM	0.888 µM	2.31 µM	0.395 µM	0.777 µM	1.59 µM	0.456 µM	0.353 µM	2.21 µM	0.169 µM	0.229 µM	0.253 µM	0.225 µM
c1ccc(-c2nn(-c3ccccc3)[n+](-c3ccccc3-c3ccccc3)n2)cc1	15.5 µM	> 73.1 µM	21.5 µM	8.6 µM	27.2 µM	11 µM	5.48 µM	2.2 µM	5.84 µM	19.9 µM	0.416 µM	1.4 µM	4.35 µM	1.04 µM	2.3 µM	0.532 µM	0.775 µM	0.409 µM	0.251 µM	1.23 µM
COc1cc2cc(Oc3ccc(NC(=O)Nc4cc(C(F)(F)F)cc(C(F)(F)F)c4)cc3)c(C)nc2cc1OCCN1CCCCC1	3.03 µM	3.27 µM	3.71 µM	3.35 µM	3.07 µM	3.47 µM	2.57 µM	3.08 µM	4.72 µM	2.99 µM	1.64 µM	1.79 µM	2.06 µM	1.79 µM	1.66 µM	1.91 µM	1.24 µM	1.69 µM	2.08 µM	1.45 µM
O=C(CN1CCN(c2cc3c(cc2F)c(=O)c(C(=O)O)cn3C2CC2)CC1)Nc1ccc(C(=O)/C=C/c2ccccc2)cc1	> 100 µM	> 100 µM	> 100 µM	> 100 µM	> 100 µM	> 100 µM	3.82 µM	13 µM	6.73 µM	> 100 µM	3.65 µM	3.8 µM	4.19 µM	3.17 µM	18.8 µM	4.11 µM	0.431 µM	2.74 µM	2.52 µM	3.22 µM
CC(C)N(C(=O)C12C3C4C5C3C1(C(=O)N(C(C)C)C(C)C)C5C42)C(C)C (centres undefined)	> 100 µM	> 88.2 µM	> 100 µM	> 100 µM	> 100 µM	> 100 µM	> 100 µM	> 100 µM	> 64.4 µM	> 100 µM										
O=C(O)CNCc1c2ccccc2nc2ccccc12	> 100 µM	> 100 µM	> 100 µM	> 86.7 µM	> 100 µM	> 100 µM	85.4 µM	> 60.4 µM	71.9 µM	> 79.4 µM										
Fc1ccc(-c2ncn(C3CCNCC3)c2-c2ccnc(Oc3ccc(Oc4ccccc4)cc3)n2)cc1	7.94 µM	7.06 µM	7.98 µM	7.28 µM	7.82 µM	7.8 µM	4.15 µM	6.82 µM	9.91 µM	6.67 µM	4.36 µM	3.55 µM	4.35 µM	3.66 µM	4.27 µM	4.16 µM	0.651 µM	3.55 µM	4.99 µM	3.4 µM
CCN(Cc1cccc(C)c1)c1ccc(CO)c(Cl)c1	8.77 µM	18 µM	0.36 µM	14.5 µM	39.5 µM	27.8 µM	13.5 µM	22 µM	31.2 µM	37.5 µM	1.5 µM	2.33 µM	0.113 µM	0.513 µM	15.1 µM	13.9 µM	2.16 µM	9.25 µM	6.2 µM	13.1 µM
COc1ccc(C2C3=C(COC3=O)N(CCO)c3cc4c(cc32)CCC4)cc1OC (centres undefined)	0.332 µM	> 50 µM	> 50 µM	> 29.5 µM	> 50 µM	> 50 µM	> 50 µM	> 50 µM	> 50 µM	2.48 µM	0.127 µM	0.328 µM		0.336 µM	0.697 µM	0.297 µM	> 50 µM	0.246 µM	2.64 µM	0.253 µM
O=C1/C(=C/c2ccc(Cl)cc2)COc2ccc(Br)cc21	> 100 µM	> 100 µM	> 100 µM	> 100 µM	> 100 µM	> 100 µM	> 100 µM	> 100 µM	74.4 µM	> 100 µM										
C=C(C)[C@@H]1CC[C@@H]2C(=CC[C@]3(C)C([C@H](C)CC/C=C(/C)C(=O)O)CC[C@@]23C)[C@@]1(C)CCC(=O)O (some centres undefined)	44.6 µM	> 100 µM	> 100 µM	40.6 µM	98.9 µM	48.7 µM	43 µM	41.2 µM	58.2 µM	> 100 µM										
CCOC(=O)Nc1ccc2nc(Sc3ccc(Cl)cc3)sc2c1	> 32.6 µM	> 100 µM	58.4 µM	> 76.9 µM	> 100 µM	> 58.8 µM	65.4 µM	5.07 µM	54.8 µM	33.9 µM	1.89 µM	0.488 µM	9.1 µM	1.01 µM	13.5 µM	0.684 µM	7.98 µM	1.18 µM	3.51 µM	2.96 µM
Clc1ccc2c(NCCNc3nc(Cl)nc4ccccc34)ccnc2c1	2.68 µM	0.636 µM	3.46 µM	1.83 µM	3.4 µM	3.17 µM	3.4 µM	3.22 µM	0.769 µM	3.16 µM	1.29 µM	0.271 µM	1.95 µM	0.536 µM	1.78 µM	1.61 µM	1.74 µM	1.76 µM	0.279 µM	1.64 µM
O=C(N/N=C\c1cc(Br)cc(Br)c1O)N/N=C/c1cc(Br)cc(Br)c1O	16.3 µM	19.6 µM	26.2 µM	11.5 µM	16.1 µM	11.7 µM	16.4 µM	4.69 µM	10.6 µM	15.6 µM	4.03 µM	4.52 µM	10.6 µM	3.11 µM	2.79 µM	2.9 µM	1.85 µM	1.83 µM	2.72 µM	1.11 µM
c1cc[c]([Sn]([O]c2cccc3cccnc23)([c]2ccccc2)[c]2ccccc2)cc1	0.0337 µM	0.0217 µM	0.0693 µM	0.0321 µM	0.0299 µM	0.0267 µM	0.0575 µM	0.0422 µM	0.05 µM	0.198 µM	0.0171 µM	0.0101 µM	0.0229 µM	0.0154 µM	0.0116 µM	0.0135 µM	0.0172 µM	0.0186 µM	0.0184 µM	0.0509 µM
COC(=O)CCCCCCCCC(=O)c1c(C)[nH]c(/C=C2\N=C(c3ccc[nH]3)C=C2OC)c1C	> 86.3 µM	> 100 µM	> 100 µM	> 100 µM	> 100 µM	> 100 µM	> 30.5 µM	5.67 µM	> 30.6 µM	> 83.7 µM	> 48.1 µM	> 62 µM	> 100 µM	3.57 µM	14.9 µM	> 69.9 µM	4.73 µM	1.97 µM	6.38 µM	> 31 µM
